The source of these data is patent publication US9834571B2, “Compounds for inhibiting cell proliferation in EGFR-driven cancers” (ARIAD Pharmaceuticals, Inc., priority 2012, dated 2017).

Read-outs that look alike come from different tables or passages of the source. A value given as a limit tells only on which side of the number the result lay.

Assay [1] concerns the target human EGFR (native sequence) (Homo sapiens, UniProt P00533). Briefly: Kinase inhibitory activity against human EGFR (native sequence). The assay is classed as biochemical. The following applies: 10 μM ATP, read-out: IC50 for kinase inhibition, EGFR. The protocol:
(§1) Kinase inhibitory activity of the compounds was measured against human EGFR (native sequence) and against EGFR bearing the L858R mution and the L858R/T790M double mutation (EGFR, L858R, and L858R/T790M, respectively in Table 1). Additional assays can be conducted with EGFR deletion mutants such as delE746-A750 with or without the additional T790M mutation. Assay conditions included 10 pt curves with 3 μM top concentration (singlicates) and 10 μM ATP.

The target in assay [2] is EGFR L858R (Homo sapiens, UniProt P00533, L858R). The experiment in a line: Kinase inhibitory activity against EGFR bearing the L858R mutation. The assay is classed as biochemical. The note with it: 10 μM ATP, read-out: IC50 for kinase inhibition, EGFR L858R. On the procedure:
as §1

For assay [3], the target named is EGFR L858R/T790M (Homo sapiens, UniProt P00533, L858R/T790M). Briefly: Kinase inhibitory activity against EGFR bearing the L858R/T790M double mutation. The assay is classed as biochemical. The following applies: 10 μM ATP, read-out: IC50 for kinase inhibition, EGFR L858R T790M. On the procedure: as §1
Assay [4] concerns the target T1, BaF3 cells expressing the target EGFR mutations (Homo sapiens, UniProt P00533, T790M, cells depend on it, form not given).
T1 construct: IC50, BAF3 EGFR DEL T790M PURO POOL; other: BAF3 EGFR DEL T790M PURO POOL cells, MTT; other: BAF3 EGFR DEL T790M PURO POOL cells; MTT
The experiment in a line: Antiproliferative activity (MTT) against BaF3 cells expressing the target EGFR mutations. The assay is classed as cell-based. The following applies: BAF3 EGFR DEL T790M PURO POOL cells, read-out: IC50, BAF3 EGFR DEL T790M PURO POOL. The protocol: (§2) We also assessed the antiproliferative activity of compounds of Formula (I) against BaF3 cells expressing the target EGFR mutations or control (i.e., cell lines expressing wildtype EGFR). Assays were conducted using MTT.

Assay [5] addresses T2, BaF3 cells expressing the target EGFR mutations (Homo sapiens, UniProt P00533, T790M/L858R, cells depend on it).
T2 construct: IC50, BAF3 EGFR L858R-T790M PURO POOL; other: BAF3 EGFR L858R-T790M PURO POOL cells, MTT; IC50, BAF3 EGFR L858R-T790M PURO POOL; other: BAF3 EGFR L858R-T790M PURO POOL cells; MTT
The description is as above. The assay is classed as cell-based. The following applies: BAF3 EGFR L858R-T790M PURO POOL cells, read-out: IC50, BAF3 EGFR L858R-T790M PURO POOL. The protocol:
as §2

In assay [6] the test system is BaF3 cells expressing wildtype EGFR. Briefly: Antiproliferative activity (MTT) against control BaF3 cells expressing wildtype EGFR. The assay is classed as cell-based. The protocol:
as §2

The mark [7] stands for this setting: EGFR L858R/T790M double mutation.
The mark [8] stands for this setting: Mus musculus, BAF3 PARENTAL cells (control).
Where [9] appears, read: 10 pt curves, 3 μM top concentration.
The mark [10] stands for this setting: Mus musculus, BAF3 parental cells.

EGFR L858R, sequence (P00533 25-1210 L858R): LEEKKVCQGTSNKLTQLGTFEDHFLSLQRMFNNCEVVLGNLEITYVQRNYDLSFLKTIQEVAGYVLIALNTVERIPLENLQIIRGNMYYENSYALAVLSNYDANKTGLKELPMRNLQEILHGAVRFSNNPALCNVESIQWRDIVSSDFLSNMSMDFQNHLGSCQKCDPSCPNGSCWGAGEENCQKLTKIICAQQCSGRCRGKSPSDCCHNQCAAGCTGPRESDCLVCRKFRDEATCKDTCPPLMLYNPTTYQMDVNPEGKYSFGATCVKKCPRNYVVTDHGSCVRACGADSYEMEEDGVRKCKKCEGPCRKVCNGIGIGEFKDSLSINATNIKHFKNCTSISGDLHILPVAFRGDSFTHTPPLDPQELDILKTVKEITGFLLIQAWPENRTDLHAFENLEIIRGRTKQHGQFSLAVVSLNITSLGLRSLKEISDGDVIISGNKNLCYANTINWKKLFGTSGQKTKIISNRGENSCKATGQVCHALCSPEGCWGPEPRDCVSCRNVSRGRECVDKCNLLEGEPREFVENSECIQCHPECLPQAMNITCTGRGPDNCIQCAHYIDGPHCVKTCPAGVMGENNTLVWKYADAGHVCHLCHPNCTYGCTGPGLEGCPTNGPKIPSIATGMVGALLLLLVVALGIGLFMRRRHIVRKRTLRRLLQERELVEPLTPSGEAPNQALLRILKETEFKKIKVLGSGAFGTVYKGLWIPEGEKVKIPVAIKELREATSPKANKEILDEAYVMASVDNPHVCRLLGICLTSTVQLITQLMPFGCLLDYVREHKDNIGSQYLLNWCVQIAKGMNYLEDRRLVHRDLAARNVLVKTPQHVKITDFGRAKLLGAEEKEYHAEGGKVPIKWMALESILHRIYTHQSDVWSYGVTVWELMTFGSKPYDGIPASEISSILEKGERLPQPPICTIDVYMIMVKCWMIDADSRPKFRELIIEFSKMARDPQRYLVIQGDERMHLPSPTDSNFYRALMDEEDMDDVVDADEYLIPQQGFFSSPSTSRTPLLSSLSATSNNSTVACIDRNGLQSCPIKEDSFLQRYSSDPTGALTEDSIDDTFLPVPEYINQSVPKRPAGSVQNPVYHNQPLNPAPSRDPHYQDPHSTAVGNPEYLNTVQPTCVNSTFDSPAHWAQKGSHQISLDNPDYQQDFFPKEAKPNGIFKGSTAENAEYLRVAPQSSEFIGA
T1 sequence (P00533 with tags, fused parts or gaps DEL746-750/T790M, form open): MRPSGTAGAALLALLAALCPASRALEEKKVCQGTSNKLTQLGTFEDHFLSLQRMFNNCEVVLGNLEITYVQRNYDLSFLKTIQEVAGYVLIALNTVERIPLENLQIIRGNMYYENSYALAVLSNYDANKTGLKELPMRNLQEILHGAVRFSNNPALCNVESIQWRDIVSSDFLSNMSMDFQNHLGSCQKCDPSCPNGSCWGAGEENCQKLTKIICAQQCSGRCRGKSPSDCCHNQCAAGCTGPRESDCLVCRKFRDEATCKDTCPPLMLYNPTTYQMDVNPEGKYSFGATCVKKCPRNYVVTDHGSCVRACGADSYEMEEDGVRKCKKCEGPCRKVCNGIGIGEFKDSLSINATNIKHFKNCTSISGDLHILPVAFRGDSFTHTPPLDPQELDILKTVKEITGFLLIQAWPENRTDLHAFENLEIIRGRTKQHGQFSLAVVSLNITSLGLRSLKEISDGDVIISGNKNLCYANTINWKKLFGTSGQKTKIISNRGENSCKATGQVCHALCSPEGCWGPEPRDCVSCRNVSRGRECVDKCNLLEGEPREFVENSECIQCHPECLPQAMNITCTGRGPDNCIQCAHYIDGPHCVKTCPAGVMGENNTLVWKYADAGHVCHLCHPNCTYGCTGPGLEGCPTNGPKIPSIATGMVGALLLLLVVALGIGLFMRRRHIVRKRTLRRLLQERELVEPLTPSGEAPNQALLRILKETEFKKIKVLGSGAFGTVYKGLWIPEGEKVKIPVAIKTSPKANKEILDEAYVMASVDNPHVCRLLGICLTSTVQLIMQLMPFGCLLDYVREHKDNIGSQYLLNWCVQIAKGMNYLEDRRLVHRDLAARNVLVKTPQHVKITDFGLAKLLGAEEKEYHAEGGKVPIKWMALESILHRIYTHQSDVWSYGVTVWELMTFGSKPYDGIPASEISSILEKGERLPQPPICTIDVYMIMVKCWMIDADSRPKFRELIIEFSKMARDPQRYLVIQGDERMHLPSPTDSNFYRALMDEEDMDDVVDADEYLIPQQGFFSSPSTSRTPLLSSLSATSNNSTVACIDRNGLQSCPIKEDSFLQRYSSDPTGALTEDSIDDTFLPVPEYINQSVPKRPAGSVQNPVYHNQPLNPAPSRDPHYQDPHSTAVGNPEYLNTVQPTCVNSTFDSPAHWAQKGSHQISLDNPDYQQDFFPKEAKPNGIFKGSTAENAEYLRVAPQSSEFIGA
human EGFR (native sequence), sequence (P00533 25-1210): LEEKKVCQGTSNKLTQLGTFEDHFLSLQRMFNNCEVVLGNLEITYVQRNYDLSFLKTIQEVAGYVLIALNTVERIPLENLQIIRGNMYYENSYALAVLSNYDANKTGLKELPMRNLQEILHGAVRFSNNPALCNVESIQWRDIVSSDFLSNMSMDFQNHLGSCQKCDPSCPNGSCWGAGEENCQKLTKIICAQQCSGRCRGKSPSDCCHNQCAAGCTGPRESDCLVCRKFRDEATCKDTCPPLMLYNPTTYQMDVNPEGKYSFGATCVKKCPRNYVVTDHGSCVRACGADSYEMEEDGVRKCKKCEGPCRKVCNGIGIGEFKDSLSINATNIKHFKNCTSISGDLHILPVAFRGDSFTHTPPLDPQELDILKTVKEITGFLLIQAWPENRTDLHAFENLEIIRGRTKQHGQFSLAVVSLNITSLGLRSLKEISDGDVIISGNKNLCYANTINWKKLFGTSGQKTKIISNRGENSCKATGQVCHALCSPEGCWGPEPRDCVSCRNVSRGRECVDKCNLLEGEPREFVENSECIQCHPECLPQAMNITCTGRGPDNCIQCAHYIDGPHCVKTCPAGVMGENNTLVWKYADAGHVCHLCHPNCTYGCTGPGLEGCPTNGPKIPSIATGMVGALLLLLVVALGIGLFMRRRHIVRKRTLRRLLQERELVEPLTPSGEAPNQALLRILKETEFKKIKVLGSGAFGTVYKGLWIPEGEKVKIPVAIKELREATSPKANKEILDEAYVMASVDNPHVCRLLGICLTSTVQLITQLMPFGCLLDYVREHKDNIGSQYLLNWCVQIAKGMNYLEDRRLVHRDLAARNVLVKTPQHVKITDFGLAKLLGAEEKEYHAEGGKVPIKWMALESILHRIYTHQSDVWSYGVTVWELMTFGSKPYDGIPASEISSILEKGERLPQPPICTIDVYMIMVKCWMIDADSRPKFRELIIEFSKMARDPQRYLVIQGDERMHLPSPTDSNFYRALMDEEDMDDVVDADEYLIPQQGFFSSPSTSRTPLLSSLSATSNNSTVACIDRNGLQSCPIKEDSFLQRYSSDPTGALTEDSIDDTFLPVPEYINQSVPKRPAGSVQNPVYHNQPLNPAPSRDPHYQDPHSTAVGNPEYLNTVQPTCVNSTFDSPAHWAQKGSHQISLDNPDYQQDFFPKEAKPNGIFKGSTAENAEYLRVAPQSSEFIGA
EGFR L858R/T790M, sequence (P00533 25-1210 T790M/L858R): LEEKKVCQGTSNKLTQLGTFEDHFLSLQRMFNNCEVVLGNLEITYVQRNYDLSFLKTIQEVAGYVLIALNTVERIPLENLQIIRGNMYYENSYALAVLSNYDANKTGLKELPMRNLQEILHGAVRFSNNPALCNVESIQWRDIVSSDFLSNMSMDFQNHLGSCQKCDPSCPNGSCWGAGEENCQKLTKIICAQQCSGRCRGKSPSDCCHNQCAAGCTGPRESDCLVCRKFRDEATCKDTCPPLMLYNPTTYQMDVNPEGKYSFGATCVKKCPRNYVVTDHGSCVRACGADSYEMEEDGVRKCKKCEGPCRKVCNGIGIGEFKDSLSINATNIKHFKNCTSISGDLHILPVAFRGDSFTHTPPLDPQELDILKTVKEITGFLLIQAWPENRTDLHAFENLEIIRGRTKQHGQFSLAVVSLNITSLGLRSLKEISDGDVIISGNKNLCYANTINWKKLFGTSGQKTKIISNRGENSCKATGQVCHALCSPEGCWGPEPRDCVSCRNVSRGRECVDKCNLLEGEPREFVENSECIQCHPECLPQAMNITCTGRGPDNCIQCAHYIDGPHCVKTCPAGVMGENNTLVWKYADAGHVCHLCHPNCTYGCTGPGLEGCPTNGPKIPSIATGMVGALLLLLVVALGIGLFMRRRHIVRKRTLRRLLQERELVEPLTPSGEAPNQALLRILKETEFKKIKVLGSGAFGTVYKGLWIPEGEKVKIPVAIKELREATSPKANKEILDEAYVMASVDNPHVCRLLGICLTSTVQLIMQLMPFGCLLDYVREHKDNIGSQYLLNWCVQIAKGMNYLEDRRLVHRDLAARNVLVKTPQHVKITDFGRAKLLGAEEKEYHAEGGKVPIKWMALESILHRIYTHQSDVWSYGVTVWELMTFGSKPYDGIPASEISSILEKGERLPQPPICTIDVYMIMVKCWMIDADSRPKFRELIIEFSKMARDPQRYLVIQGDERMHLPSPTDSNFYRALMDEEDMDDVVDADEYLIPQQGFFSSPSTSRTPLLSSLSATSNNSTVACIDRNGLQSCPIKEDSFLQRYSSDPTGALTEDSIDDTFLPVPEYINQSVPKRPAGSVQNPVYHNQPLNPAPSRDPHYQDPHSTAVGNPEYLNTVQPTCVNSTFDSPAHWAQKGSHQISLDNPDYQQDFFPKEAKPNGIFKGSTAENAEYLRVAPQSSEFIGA

`C=CC(=O)Nc1cc(Nc2ncc(Cl)c(Nc3ccccc3P(C)(C)=O)n2)c(OC)cc1OCCN1CCOCC1` [Example 4, N-(5-((5-chloro-4-((2-(dimethylphosphoryl)phenyl)amino)pyrimidin-2-yl)amino)-4-methoxy-2-(2-morpholinoethoxy)phenyl)acrylamide]: the IC50 in assay [1] (human EGFR native sequence) was under 50 nM; in assay [2] (EGFR L858R), under 50 nM; in assay [3] (setting [7]) it was under 50 nM; in assay [6] (setting [8]), at least 250 nM. Moreover, the GI50 in assay [4] fell in the range of 50 to 100 nM; in assay [5] it was 101 to 250 nM.
On to `COc1ccc(NC(=O)/C=C\C(=O)N2CCN(C)CC2)cc1Nc1ncc(Cl)c(Nc2ccccc2P(C)(C)=O)n1` [Example 63, (Z)-N-(3-((5-chloro-4-((2-(dimethylphosphoryl)phenyl)amino)pyrimidin-2-yl)amino)-4-methoxyphenyl)-4-(4-methylpiperazin-1-yl)-4-oxobut-2-enamide], for which the IC50 in assay [1] (human EGFR native sequence) is at least 250 nM; in assay [2] (EGFR L858R) it was 101 to 250 nM; in assay [3] (setting [7]), at least 250 nM; in assay [6] (setting [8]) it was at least 250 nM. The GI50 in assay [4] and in assay [5] was at least 250 nM each time.
For the molecule `COc1cc(F)c(NC(=O)CCl)cc1Nc1ncc(Cl)c(Nc2ccccc2P(C)(C)=O)n1` [Example 149, 2-chloro-N-(5-((5-chloro-4-((2-(dimethylphosphoryl)phenyl)amino)pyrimidin-2-yl)amino)-2-fluoro-4-methoxyphenyl)acetamide], the IC50 was under 50 nM in assay [1] (setting [9]), under 50 nM in assay [2] (setting [9]), under 50 nM in assay [3] (setting [9]) and at least 250 nM in assay [6] (setting [10]). In addition, the GI50 in assay [4] and in assay [5] was under 50 nM in each case.
As to `C=C(F)C(=O)Nc1ccc(OC)c(Nc2ncc(Cl)c(Nc3ccccc3P(C)(C)=O)n2)c1` [Example 77, N-(3-((5-chloro-4-((2-(dimethylphosphoryl)phenyl)amino)pyrimidin-2-yl)amino)-4-methoxyphenyl)-2-fluoroacrylamide], the IC50 in assay [1] (human EGFR native sequence) is at least 250 nM; in assay [2] (EGFR L858R), under 50 nM; in assay [3] (setting [7]) it was 50 to 100 nM; in assay [6] (setting [8]) it was at least 250 nM. Also, the GI50 was under 50 nM in assay [4] and 50 to 100 nM in assay [5].
On to `CC#CC(=O)Nc1cc(Nc2ncc(Cl)c(Nc3ccccc3P(C)(C)=O)n2)c(OC)cc1OCC1CCOCC1` [Example 102, N-(5-((5-chloro-4-((2-(dimethylphosphoryl)phenyl)amino)pyrimidin-2-yl)amino)-4-methoxy-2-((tetrahydro-2H-pyran-4-yl)methoxy)phenyl)but-2-ynamide], for which the IC50 was at least 250 nM in assay [1] (human EGFR native sequence), 101 to 250 nM in assay [2] (EGFR L858R), at least 250 nM in assay [3] (setting [7]) and at least 250 nM in assay [6] (setting [8]). In addition, the GI50 is under 50 nM in assay [4] and 50 to 100 nM in assay [5].
`C=CC(=O)Nc1ccc(F)c(Nc2ncc(Cl)c(Nc3ccccc3P(C)(C)=O)n2)c1` [Example 54, N-(3-((5-chloro-4-((2-(dimethylphosphoryl)phenyl)amino)pyrimidin-2-yl)amino)-4-fluorophenyl)acrylamide]: the GI50 in assay [4] and in assay [5] was under 50 nM each time. Also, in assay [6] (setting [8]), the IC50 was at least 250 nM.
Consider `C=CC(=O)Nc1cc(Cc2ncc(Cl)c(Nc3ccccc3P(C)(C)=O)n2)c(OC)cc1C#CCN1CCC(C)CC1` [Example 176, N-(5-((5-chloro-4-((2-(dimethylphosphoryl)phenyl)amino)pyrimidin-2-yl)methyl)-4-methoxy-2-(3-(4-methylpiperidin-1-yl)prop-1-yn-1-yl)phenyl)acrylamide], for which the IC50 is under 50 nM in assay [1] (setting [9]), under 50 nM in assay [2] (setting [9]), under 50 nM in assay [3] (setting [9]) and at least 250 nM in assay [6] (setting [10]).
`C=CC(=O)Nc1cc(Nc2ncc(Cl)c(Nc3ccccc3P(C)(C)=O)n2)c(Cl)cc1OC(COC)CN(C)C` (stereo not shown) [Example 146, N-(4-chloro-5-((5-chloro-4-((2-(dimethylphosphoryl)phenyl)amino)pyrimidin-2-yl)amino)-2-((1-(dimethylamino)-3-methoxypropan-2-yl)oxy)phenyl)acrylamide]: the IC50 was under 50 nM in assay [1] (setting [9]) and at least 250 nM in assay [6] (BAF3 parental cells). Besides, in assay [4], the GI50 is under 50 nM.
Consider `C=CC(=O)Nc1cc(Nc2ncc(Cl)c(Nc3ccccc3P(C)(C)=O)n2)c(C)cc1OC(COC)CN(C)C` (stereo not shown) [Example 144, N-(5-((5-chloro-4-((2-(dimethylphosphoryl)phenyl)amino)pyrimidin-2-yl)amino)-2-((1-(dimethylamino)-3-methoxypropan-2-yl)oxy)-4-methylphenyl)acrylamide], for which the IC50 is under 50 nM in assay [1] (setting [9]) and at least 250 nM in assay [6] (BAF3 parental cells). In addition, the GI50 in assay [4] was under 50 nM.
In the case of `C=CC(=O)Nc1cc(Cc2ncc(Cl)c(Nc3ccccc3P(C)(C)=O)n2)c(OC)cc1C#CCN(C)C(C)(C)C` [Example 177, N-(2-(3-(tert-butyl(methyl)amino)prop-1-yn-1-yl)-5-((5-chloro-4-((2-(dimethylphosphoryl)phenyl)amino)pyrimidin-2-yl)methyl)-4-methoxyphenyl)acrylamide], the concentration for half-maximal inhibition (IC50) in assay [1] (setting [9]) was under 50 nM; in assay [2] (setting [9]), under 50 nM; in assay [3] (setting [9]) it was under 50 nM; in assay [6] (setting [10]) it was at least 250 nM.
Regarding `C=CC(=O)Nc1cc(Nc2ncc(Cl)c(Nc3ccccc3P(C)(C)=O)n2)c(OC)cc1OCCN1CCN(C)CC1` [Example 2, N-(5-((5-chloro-4-((2-(dimethylphosphoryl)phenyl)amino)pyrimidin-2-yl)amino)-4-methoxy-2-(2-(4-methylpiperazin-1-yl)ethoxy)phenyl)acrylamide], the IC50 in assay [1] (human EGFR native sequence) is 101 to 250 nM; in assay [2] (EGFR L858R), under 50 nM; in assay [3] (setting [7]), under 50 nM; in assay [6] (setting [8]), at least 250 nM. Further, the GI50 in assay [4] is at least 250 nM.
In the case of `C=CC(=O)Nc1cc(Nc2ncc(Cl)c(Nc3ccccc3P(C)(C)=O)n2)c(OC)cc1OCC(CO)N(C)C` (stereo not shown) [Example 66, N-(5-((5-chloro-4-((2-(dimethylphosphoryl)phenyl)amino)pyrimidin-2-yl)amino)-2-(2-(dimethylamino)-3-hydroxypropoxy)-4-methoxyphenyl)acrylamide], the GI50 is 101 to 250 nM in assay [4] and at least 250 nM in assay [5]. Besides, the IC50 in assay [6] (setting [8]) is at least 250 nM.
As to `C=CC(=O)Nc1cc(Nc2ncc(Cl)c(Nc3ccccc3P(C)(C)=O)n2)c(OC)cc1OCC1CCCN1C` (stereo not shown) [Example 18, N-(5-((5-chloro-4-((2-(dimethylphosphoryl)phenyl)amino)pyrimidin-2-yl)amino)-4-methoxy-2-((1-methylpyrrolidin-2-yl)methoxy)phenyl)acrylamide], the GI50 in assay [4] and in assay [5] was under 50 nM throughout. In addition, the IC50 in assay [6] (setting [8]) is at least 250 nM.
As to `C=CC(=O)Nc1cc(Nc2ncc(Cl)c(Nc3ccccc3P(C)(C)=O)n2)c(OC)cc1OC1CN(C)C1` [Example 17, N-(5-((5-chloro-4-((2-(dimethylphosphoryl)phenyl)amino)pyrimidin-2-yl)amino)-4-methoxy-2-((1-methylazetidin-3-yl)oxy)phenyl)acrylamide], the GI50 in assay [4] was in the range of 50 to 100 nM; in assay [5], 101 to 250 nM. For the same molecule, in assay [6] (setting [8]), the IC50 was at least 250 nM.
As for `C=CC(=O)N1CCc2cc(OC)c(Nc3ncc(Cl)c(Nc4ccccc4P(C)(C)=O)n3)cc21` [Example 127, 1-(6-((5-chloro-4-((2-(dimethylphosphoryl)phenyl)amino)pyrimidin-2-yl)amino)-5-methoxyindolin-1-yl)prop-2-en-1-one], the values for the GI50 in assay [4] and in assay [5] were 101 to 250 nM and at least 250 nM, respectively. The half-inhibitory concentration (IC50) in assay [6] (setting [10]) was at least 250 nM.
